Experimental data: paper PMC8006714 (Chemical Communications (Cambridge, England), 2021)
Entries after “also recorded” stand apart in the source; their conditions may differ. Structures can show the parent of a compound that is named as a salt.

These compounds were tested against T1, SARS-CoV-2 M^pro (Severe acute respiratory syndrome coronavirus 2, UniProt P0DTD1) (assay: biochemical). Details: not given.
Format: biochemical

Compound	inhibition at a fixed 20 μM inhibitor concentration [%]	% Mpro inhibition at 20 µM	M^pro inhibition (in words)
CCN(CC)C(=S)SSC(=S)N(CC)CC [Disulfiram, Tetraethylthiuram disulphide]	≥ 80	–	–
Cc1ccc(S(=O)(=O)/C=C/C#N)cc1 [BAY 11-7082]	–	92.0%	–
(R)-(−)-2,10,11-Trihydroxyaporphine hybrobromide	–	99.6%	–
Br.NC1CCc2cc(O)c(O)cc2C1 (racemic) [(±)-2-Amino-6,7-dihydroxy-1,2,3,4-tetrahydronaphthalene hydrobromide]	–	88.3%	–
CC=CC1=C(C(=O)O)N2C(=O)[C@@H](NC(=O)[C@H](N)c3ccc(O)cc3)[C@H]2SC1 [Cefprozil]	–	57.5%	–
O=C(N[C@@H](Cc1ccccc1)C(=O)CCl)OCc1ccccc1 [N-Carbobenzyloxy-L-phenylanlanyl chloromethyl ketone]	–	100.0%	–
O=Nc1ccc2oc(=O)ccc2c1 [6-Nitroso-1,2-benzopyrone]	–	99.5%	–
N.S=C(S)N1CCCC1 [Ammonium pyrrolidinedithiocarbamate]	–	95.1%	–
CC(Cc1ccc(O)c(O)c1)C(C)Cc1ccc(O)c(O)c1 (centres unmarked) [Nordihydroguaiaretic acid]	–	97.8%	–
Colistin sulfate	–	95.8%	–
NC(N)=Nc1ccc2[nH]c3c(c2c1)C[C@@]1(O)[C@H]2Cc4ccc(O)c5c4[C@@]1(CCN2CC1CC1)[C@H]3O5.O=C(O)C(F)(F)F.O=C(O)C(F)(F)F [Guanidinyl-naltrindole di-trifluoroacetate]	–	99.6%	–
[Cl-].[NH3+][Pt-2]([NH3+])([Cl])[n+]1ccccc1 (stereo not drawn) [cis-Diammine(pyridine)chloroplatinum(II) chloride]	–	99.6%	–
Oc1ccccc1O [Pyrocatechol]	–	85.4	–
NC(=O)CI [Iodoacetamide]	–	99.3%	–
OC[C@H]1O[C@H]([S-])[C@H](O)[C@@H](O)[C@@H]1O.[Au+] [Aurothioglucose]	–	96.6%	–
C[n+]1cc2c3c(ccc2c2ccc4cc5c(cc4c21)OCO5)OCO3 [Sanguinarium chloride, Sanguinarine chloride]	–	98.7%	–
CCCN1CCc2cccc3c2[C@H]1Cc1ccc(O)c(O)c1-3.Cl [(R)-(−)-Propylnorapomorphine hydrochloride]	–	100.0%	–
CC(C)(C)c1ccc(S(=O)(=O)/C=C/C#N)cc1 [Bay 11-7085]	–	95.0%	–
Br.CCCN1CCc2cc(O)cc3c2[C@H]1Cc1ccc(O)c(O)c1-3 [(R)-(−)-2,10,11-Trihydroxy-n-propylnoraporphine hydrobromide]	–	98.3%	–
O=C1C(SCCO)=C(SCCO)C(=O)c2ccccc21 [NSC 95397]	–	99.0%	–
CC(=O)OCC1=C(C(=O)[O-])N2C(=O)[C@@H](NC(=O)CCCC(N)C(=O)O)[C@H]2SC1.[Na+] (some centres unmarked) [Cephalosporin C sodium]	–	78.3%	inhibited
CO/N=C(\C(=O)N[C@@H]1C(=O)N2C(C(=O)O)=C(CSC(=O)c3ccco3)CS[C@H]12)c1csc(N)n1.Cl [Ceftiofur hydrochloride]	–	65.0%	–
Chlorophyllide copper complex sodium salt	–	86.5%	–
CC(C)N(CCC(=O)c1ccc2ccccc2c1)Cc1ccccc1.Cl [ZM 39923 hydrochloride]	–	96.9%	–
CCN[C@@H]1C[C@H](N)[C@@H](O[C@H]2OC(CN)=CC[C@H]2N)[C@H](O)[C@H]1O[C@H]1OC[C@](C)(O)[C@H](NC)[C@H]1O.CCN[C@@H]1C[C@H](N)[C@@H](O[C@H]2OC(CN)=CC[C@H]2N)[C@H](O)[C@H]1O[C@H]1OC[C@](C)(O)[C@H](NC)[C@H]1O.O=S(=O)(O)O.O=S(=O)(O)O.O=S(=O)(O)O.O=S(=O)(O)O.O=S(=O)(O)O [Netilmicin sulfate]	–	89.1%	–
O=C([O-])c1ccccc1-c1c2cc(I)c(=O)c(I)c-2oc2c(I)c([O-])c(I)cc12.[Na+].[Na+] [Erythrosine sodium]	–	86.5%	–
Br.CN=c1nc(-c2ccccc2)n(-c2ccccc2)s1 [Sch-202676 hydrobromide]	–	100.0%	–

Same assay, conditions: 20, 50 and 100 µM β-lactam; 30 min or 60 min preincubation (Fig. S17)

Compound	M^pro inhibition at single concentrations (in words)
C=CC1=C(C(=O)O)N2C(=O)[C@@H](NC(=O)/C(=N\O)c3csc(N)n3)[C@H]2SC1 [Cefdinir]	weak time dependent inhibition
CO/N=C(\C(=O)N[C@@H]1C(=O)N2C(C(=O)O)=C(CSC(=O)c3ccco3)CS[C@H]12)c1csc(N)n1 [ceftiofur]	weak time dependent inhibition
CC1(C)S[C@@H]2[C@H](NC(=O)Cc3ccccc3)C(=O)N2[C@H]1C(=O)O [penicillin G]	No inhibition was observed
CC1(C)S[C@@H]2[C@H](NC(=O)[C@H](N)c3ccccc3)C(=O)N2[C@H]1C(=O)OC1OC(=O)c2ccccc21 (some centres unmarked) [talampicillin]	weak time dependent inhibition
CC1(C)S[C@@H]2[C@H](NC(=O)COc3ccccc3)C(=O)N2[C@H]1C(=O)O [penicillin V]	No inhibition was observed
O=C1[C@H](CC[C@H](O)c2ccc(F)cc2)[C@@H](c2ccc(O)cc2)N1c1ccc(F)cc1 [ezetimibe]	weak time dependent inhibition

Same assay, conditions: SPE-MS, concentration not given

Compound	M^pro inhibition (in words)
CC1=C(C(=O)O)N2C(=O)[C@@H](NC(=O)[C@H](N)c3ccccc3)[C@H]2SC1 [cephalexin]	no Mpro inhibition was observed

Same assay, conditions: library of FDA-approved small molecules; 20 µM compound, […] Mpro, 2.0 µM TSAVLQ/SGFRK-NH2; read-out: % Mpro inhibition at 20 µM

Compound	inhibition at 20 µM [%]
Cc1c(-c2cnccn2)ssc1=S [Oltipraz]	99.6

Same assay, conditions: read-out: % Mpro inhibition at 20 µM

Compound	inhibition at 20 µM [%]
CC(=O)/N=c1/sc(S(N)(=O)=O)nn1C [Methazolamide]	82.9
S=C=NCc1ccccc1 [Benzyl isothiocyanate]	95.8
CC[N+]1(C)CCCC(OC(=O)C(O)(c2ccccc2)c2ccccc2)C1 (centres unmarked) [Pipenzolate bromide]	100
O=c1oc(Cl)c(Cl)c2ccccc12 [3,4-Dichloroisocoumarin]	80.4
C[n+]1cc2c3c(ccc2c2ccc4cc5c(cc4c21)OCO5)OCO3 [Sanguinarium chloride, Sanguinarine chloride]	100
COc1ccc2c(c[n+](C)c3c4cc5c(cc4ccc23)OCO5)c1OC [Chelerythrine chloride]	85.2
O=C1C=CC(=O)C=C1 [1,4-Benzoquinone]	99.3
NC(=O)c1cc[n+](CC2=C(C(=O)[O-])N3C(=O)[C@@H](NC(=O)Cc4cccs4)[C@H]3SC2)cc1 [Cefalonium]	9.2
Oc1cc(O)cc(/C=C/c2ccc(O)c(O)c2)c1 [Piceatannol]	93.8
NCc1ccccc1CC(=O)N[C@@H]1C(=O)N2C(C(=O)O)=C(CSc3nnnn3CC(=O)O)CS[C@H]12 [Ceforanide]	10.2
CO/N=C(\C(=O)N[C@@H]1C(=O)N2C(C(=O)O)=C(C[N+]3(C)CCCC3)CS[C@H]12)c1csc(N)n1 [Cefepime hydrochloride]	20.6

Same assay, conditions: read-out: % Mpro inhibition at 20 µM, LOPAC1280 library; 20 µM compound, […] Mpro, 2.0 µM TSAVLQ/SGFRK-NH2

Compound	inhibition at 20 µM [%]
CCN(CC)C(=S)SSC(=S)N(CC)CC [Disulfiram, Tetraethylthiuram disulphide]	97.5
N[C@@H](C(=O)N[C@@H]1C(=O)N2C(C(=O)O)=C(Cl)CS[C@H]12)c1ccccc1 [Cefaclor]	8.7
Oc1cc2c(cc1O)CN(C(=S)NCCc1ccc(Cl)cc1)CCC2 [Capsazepine]	94.5

Same assay, conditions: read-out: % Mpro inhibition at 20 µM, library of FDA-approved small molecules; 20 µM compound, […] Mpro, 2.0 µM TSAVLQ/SGFRK-NH2

Compound	inhibition at 20 µM [%]
CCN(CC)C(=S)SSC(=S)N(CC)CC [Disulfiram, Tetraethylthiuram disulphide]	99.1
O=[N+]([O-])c1ccc(O)c2ncccc12 [Nitroxoline]	96
O=c1c2ccccc2[se]n1-c1ccccc1 [Ebselen]	99.1

These compounds were tested against T1, SARS-CoV-2 M^pro (assay: not given). Details: 1 μM M^pro preincubated with 3 μM N3, 20 μM inhibitor.
Format: binding

Compound	covalent modification of M^pro preincubated with N3 (active site selectivity)
Cc1ccc(S(=O)(=O)/C=C/C#N)cc1 [BAY 11-7082]	multiple adducts observed with unmodified M^pro were diminished; also recorded: to a lesser extent compared to active site free M pro
O=C1C(SCCO)=C(SCCO)C(=O)c2ccccc21 [NSC 95397]	does not selectively bind to the M pro active site

Same assay, conditions: 1 μM M^pro, 20 μM inhibitor, 20 mM HEPES pH 7.5, 50 mM NaCl

Compound	covalent modification of M^pro (protein observed SPE-MS)
Cc1ccc(S(=O)(=O)/C=C/C#N)cc1 [BAY 11-7082]	reacts with Mpro at multiple position
O=c1c2ccccc2[se]n1-c1ccccc1 [Ebselen]	covalently reacts multiple times with Mpro
O=C1C(SCCO)=C(SCCO)C(=O)c2ccccc21 [NSC 95397]	reacts with Mpro at multiple positions

Same assay, conditions: 1 μM M^pro, 20 μM inhibitor, 20 mM HEPES pH 7.5, 50 mM NaCl; listed as ebselen

Compound	covalent modification of M^pro (protein observed SPE-MS)
O=c1c2ccccc2[se]n1-c1ccccc1 [Ebselen]	modifies M^pro in a covalent manner; also recorded: time dependent modification of multiple residues

Same assay, conditions: 1 µM Mpro, 100 fold excess of β-lactam, 25 min to 24 h

Compound	covalent reaction with M^pro (protein observed SPE-MS)
CCN1CCN(C(=O)N[C@@H](C(=O)N[C@]2(OC)C(=O)N3C(C(=O)O)=C(CSc4nnnn4C)CS[C@@H]32)[C@H](C)O)C(=O)C1=O [cefbuperazone]	evidence for more than one reaction was accrued
C[C@]1(Cn2ccnn2)[C@H](C(=O)O)N2C(=O)C[C@H]2S1(=O)=O [tazobactam]	increased over time
CO[C@@]1(NC(=O)Cc2cccs2)C(=O)N2C(C(=O)O)=C(COC(N)=O)CS[C@@H]21 [cefoxitin]	evidence for more than one reaction was accrued
CO[C@@]1(NC(=O)C2SC(=C(C(N)=O)C(=O)O)S2)C(=O)N2C(C(=O)O)=C(CSc3nnnn3C)CS[C@@H]21 (some centres unmarked) [cefotetan]	evidence for more than one reaction was accrued
O=C(O)[C@H]1/C(=C/CO)O[C@@H]2CC(=O)N21 [clavulanate]	(partial) inhibitor fragmentation was observed
CO[C@@]1(NC(=O)C(C(=O)O)c2ccc(O)cc2)C(=O)N2C(C(=O)O)=C(CSc3nnnn3C)CO[C@@H]21 (some centres unmarked) [moxalactam]	(partial) inhibitor fragmentation was observed
